# Measurements from patent US6759238B1, “Multidrug resistance associated proteins and uses thereof” (priority 1999, dated 2004).
# Where two headings read alike, the source gives them in different places.
# Key:
# [1] = system: CEM-r1 cells; experiment: Cytotoxicity assay (growth inhibition, Coulter counter); conditions: for Cross-resistance of CEM-r1 cells (in words): relative sensitivity of wild-type and CEM-r1 cells; for Relative Resistance: CEM-r1 vs CEM-SS (Table 3)
# Experimental: Selection for PMEA resistance was carried out by exposing CEM-SS cells in culture to increasing concentrations of PMEA, over several months.
# The IC50 values were obtained after 2 days of culture. Each result is the mean of one representative experiment performed in duplicate. The cultures with the purine nucleosides adenosine, 2′-deoxyadenosine, and arabinosyladenine contained 5 μM deoxycoformycin to inhibit adenosine deaminase activity.
# (§1) All assays were performed in 24-well tissue culture plates (Costar, Cambridge, Ma.). […] At the end of the incubation, the cell concentrations, sizes, and volumes were counted in a Coulter counter (Coulter Electronics, Hialeah. Fla.).
# [2] = system: CEM-SS cells; experiment: as above
# Experimental: […] Each result is the mean of one representative experiment performed in duplicate. The cultures with the purine nucleosides adenosine, 2′-deoxyadenosine, and arabinosyladenine contained 5 μM deoxycoformycin to inhibit adenosine deaminase activity.
# as §1
# [3] = system: CEM-SS cells; experiment: Phosphorylation of AZT; type: in vitro ADME, human; conditions: 10 μM AZT
# Experimental: (§2) The appearance of the phosphorylated metabolites into the medium was also determined in both the cell lines. AZTDP and AZTTP were not detected in the medium of either CEM-SS or CEM-r1 cells. However, the amount of AZTMP accumulated in the media was approximately 3-fold higher in CEM-r1 cells than in CEM-SS cells.
# (§3) The cartridges were conditioned with 10% MeOH Ammonium Phosphate Buffer (5 mM, pH 4.0). The sample was loaded onto the column. […] AZTDP and AZTTP were eluted with 10% MeOH Ammonium Phosphate Buffer (700 mm, pH 4.6).
# [4] = system: CEM-r1 cells; experiment: Phosphorylation of AZT; type: in vitro ADME, human; conditions: CEM-r1, 10 μM AZT
# Experimental: as §2, §3
# [5] = system: CEM-r1 cells; experiment: Efflux of [3H]-AZT and its metabolites; type: in vitro ADME, human
# Experimental: Cells were incubated for 60 minutes with [^3H]-AZT (10 μM) after which they were washed free of radioactivity, resuspended in drug-free medium and the intracellular and the extracellular concentration of [^3H]-AZT were measured. […] At least 80% of the AZTMP present intracellularly in CEM-r1 cells was excreted into the medium in 10 minutes (FIG. 6A).
# Referring to Table 6 in greater detail, efflux kinetics were studied. Transport analysis of PMEA was conducted as previously described^48. […] The cells were then washed free of radioactivity and then incubated in drug-free medium in the presence of sodium azide and 2-deoxy-D-glucose. At various time periods, the amount of intracellular AZTMP was measured. As reported in Table 6, depletion of ATP led to an inhibition of AZTMP efflux (i.e. a significant accumulation of AZTMP in the CEM-r1 cells but not in the CEM-SS cells).
# The suspension was centrifuged at 3,300 rpm for 7 minutes. All but 1 ml of the supernatant medium containing the free drug was aspirated. […] The cell pellet was then washed with ice-cold medium and resuspended at the same concentration in drug-free medium and maintained at 37° C. […] An aliquot of the top layer (cell free media) was analyzed for the quantitation of AZT and its metabolites.
# [6] = system: CEM-SS cells; experiment: Uptake and metabolism of [3H]bispom-PMEA; conditions: CEM-SS, 1 μM [3H]bispom-PMEA, 15 minutes
# Experimental: (§4) Therefore, the metabolism of [^3H]bispom-PMEA (15), a lipophilic prodrug of PMEA, was analyzed in the two cell lines in order to further examine the mechanism of resistance in the mutant cell line.
# [7] = system: CEM-r1 cells; experiment: Uptake and metabolism of [3H]bispom-PMEA; conditions: CEM-r1, 1 μM [3H]bispom-PMEA, 15 minutes
# Experimental: as §4
# [8] = system: CEM-SS cells; experiment: Uptake and metabolism of [3H]PMEA; conditions: 10 μM [3H]PMEA
# Experimental: (§5) The mutant and parental cells were incubated with 10 μM [^3H]PMEA and at various times were analyzed for intracellular levels of PMEA and its metabolites by Partisil SAX HPLC. […] The metabolism of [^3H]PMEA was also examined in both cell lines after longer periods (i.e., 8 and 12 hr) of incubation with 10 μM [^3H]PMEA.
# (§6) Exponentially growing cultures were incubated with 10 μM [^3H] PMEA for 8 or 12 hr and the cell extracts were analyzed for PMEA and its metabolites by ion exchange HPLC, as described.
# (§7) Exponentially growing CEM-SS and CEM-r1 cells were harvested by centrifugation, resuspended at 1×10^6 cells/ml in fresh medium in the presence of [^3H]PMEA or [^3H]bispom-PMEA, and incubated at 37° C. At the indicated time points, aliquots of the cells were removed and centrifuged through Nyosil 50 (W. F. Nye, Inc., New Bedford, Ma.) at 13,000×g for 60 seconds at 4° C. When bispom-PMEA was investigated, an aliquot of the cell-free medium was also removed and analyzed by HPLC for determination of extracellular metabolites. The cell pellet was extracted with 70% ice-cold methanol and the aqueous phase was collected and analyzed for intracellular tritiated PMEA or tritiated bispom-PMEA and their metabolites by using HPLC analysis, essentially as described previously (23, 24).
# [9] = system: CEM-r1 cells; experiment: Uptake and metabolism of [3H]PMEA; conditions: for Intracellular levels: CEM-r1, 10 μM [3H]PMEA; for Intracellular level in CEM-r1 as percent of the wildtype level: CEM-r1 vs CEM-SS
# Experimental: as §5, §6, §7
# [10] = CEM-SS, 2 days of culture (Table 3)
# [11] = CEM-r1, 2 days of culture (Table 3)
compound,measurement,setting,value
COc1cc2c(c(OC)c1OC)-c1ccc(OC)c(=O)cc1[C@@H](NC(C)=O)CC2 [Colchicine],Cross-resistance of CEM-r1 cells (in words),[1],not resistant
CC[C@]1(O)C[C@@H]2CN(CCc3c([nH]c4ccccc34)[C@@](C(=O)OC)(c3cc4c(cc3OC)N(C)[C@H]3[C@@](O)(C(=O)OC)[C@H](OC(C)=O)[C@]5(CC)C=CCN6CC[C@]43[C@@H]65)C2)C1 [Vinblastine],IC50,"[2]; Homo sapiens, CEM-SS, 48 h",0.0018 µM
same,Relative Resistance,[1],˜1
same,IC50,"[1]; Homo sapiens, 48 h",0.0021 µM
same,Cross-resistance of CEM-r1 cells (in words),[1],not resistant
Nc1ncnc2c1ncn2C[C@@H](CO)OCP(=O)(O)O [HPMPA],IC50,[2]; [10],92 µM
same,IC50,[1]; [11],1100 µM
same,Relative Resistance,[1],12
same,Cross-resistance of CEM-r1 cells (in words),[1],partial cross-resistance
Nc1ncnc2c1ncn2[C@@H]1O[C@H](CO)[C@@H](O)[C@H]1O [Adenosine],IC50,"[2]; Homo sapiens, CEM-SS, 48 h",38 µM
same,Relative Resistance,[1],5.4
same,IC50,"[1]; Homo sapiens, 48 h",205 µM
same,Cross-resistance of CEM-r1 cells (in words),[1],partially resistant
Nc1nc(F)nc2c1ncn2[C@@H]1O[C@H](CO)[C@@H](O)[C@@H]1O [2-Fluoroarabinosyladenine],IC50,[2]; [10],1.2 µM
same,IC50,[1]; [11],4.4 µM
same,Relative Resistance,[1],3.7
same,Cross-resistance of CEM-r1 cells (in words),[1],partially resistant
Cc1cn([C@H]2C[C@H](N=[N+]=[N-])[C@@H](CO[P@](=O)(O)O[P@](=O)(O)OP(=O)(O)O)O2)c(=O)[nH]c1=O [AZTTP],Appearance in the medium,[3],not detected
same,Intracellular Concentration,[3]; 4 hours,1.3 µM
same,Intracellular Concentration,[3]; 8 hours,1.5 µM
same,Intracellular Concentration,[3]; 24 hours,1.3 µM
same,Appearance in the medium,[4],not detected
same,Intracellular Concentration,[4]; 4 hours,0.36 µM
same,Intracellular Concentration,[4]; 8 hours,0.34 µM
same,Intracellular Concentration,[4]; 24 hours,0.43 µM
same,Change of intracellular levels over the time period studied,[5],did not change significantly
same,Share of total cellular anabolites,"[5]; human, 10 μM",1%
Nc1nc(N)c2ncn(CCOCP(=O)(O)O)c2n1 [PMEADAP],IC50,"[2]; Homo sapiens, CEM-SS, 48 h",2.3 µM
same,Relative Resistance,[1],533
same,IC50,"[1]; Homo sapiens, 48 h",1200 µM
same,Cross-resistance of CEM-r1 cells (in words),[1],highly cross-resistant
Nc1ncnc2c1ncn2[C@H]1C[C@H](O)[C@@H](CO)O1 [2′-Deoxyadenosine],IC50,"[2]; Homo sapiens, CEM-SS, 48 h",1.7 µM
same,Relative Resistance,[1],˜1
same,IC50,"[1]; Homo sapiens, 48 h",2.5 µM
CC(C)(C)C(=O)OCOP(=O)([O-])COCCn1cnc2c(N)ncnc21.[Na+] [Monopom-PMEA],"Metabolite Levels, Cells",[6],4.6 µM
same,"Metabolite Levels, Medium",[6],185 nM
same,"Metabolite Levels, Cells",[7],4.1 µM
same,"Metabolite Levels, Medium",[7],166 nM
Nc1ncnc2c1ncn2[C@@H]1O[C@H](CO)[C@@H](O)[C@@H]1O [Arabinosyladenine],IC50,"[2]; Homo sapiens, CEM-SS, 48 h",0.7 µM
same,Relative Resistance,[1],˜1
same,IC50,"[1]; Homo sapiens, 48 h",0.9 µM
"Nc1nc2c(ncn2CCOCP(=O)(O)O)c(=O)[nH]1 [PMEG, 9-(2-phosphonylmethoxyethyl)guanine]",IC50,[2]; [10],0.7 µM
same,IC50,"[2]; read-out: Cytotoxicity IC50, WT (CEM-SS) cells (Table 5)",5 µM
same,IC50,[1]; [11],19 µM
same,IC50,"[1]; read-out: Cytotoxicity IC50, CEM-r1 cells (Table 5)",200 µM
same,Cross-resistance of CEM-r1 cells (in words),[1],partial cross-resistance
Cc1cn([C@H]2C[C@H](N=[N+]=[N-])[C@@H](COP(=O)(O)OP(=O)(O)O)O2)c(=O)[nH]c1=O [AZTDP],Change of intracellular levels over the time period studied,[5],did not change significantly
same,Share of total cellular anabolites,[5],1%
Nc1ncnc2c1ncn2CCOCP(=O)(O)OP(=O)(O)O [PMEAp],Intracellular levels,[8]; 8 hr,0.13 µM
same,Intracellular levels,[8]; 12 hr,0.23 µM
same,Intracellular levels,[9]; 8 hr,0.005 µM
same,Intracellular levels,[9]; 12 hr,0.005 µM
same,Intracellular level in CEM-r1 as percent of the wildtype level,[9]; 8 hr,(3.8%)
NC(=O)NO [Hydroxyurea],IC50,"[2]; Homo sapiens, CEM-SS, 48 h",55 µM
same,Relative Resistance,[1],˜1
same,IC50,"[1]; Homo sapiens, 48 h",50 µM
Nc1ncnc2c1ncn2CCOCP(=O)(O)OP(=O)(O)OP(=O)(O)O [PMEApp],Intracellular levels,[8]; 8 hr,0.22 µM
same,Intracellular levels,[8]; 12 hr,0.41 µM
same,Intracellular levels,[9]; 8 hr,0.008 µM
same,Intracellular levels,[9]; 12 hr,0.01 µM
same,Intracellular level in CEM-r1 as percent of the wildtype level,[9]; 8 hr,(3.6%)
Nc1nc(Cl)nc2c1ncn2[C@H]1C[C@H](O)[C@@H](CO)O1 [2-Chlorodeoxyadenosine],IC50,"[2]; Homo sapiens, CEM-SS, 48 h",0.08 µM
same,Relative Resistance,[1],5.5
same,IC50,"[1]; Homo sapiens, 48 h",0.4 µM
same,Cross-resistance of CEM-r1 cells (in words),[1],partially resistant
